Measured values as given in US20130190365A1, “Use of Deferiprone and Methods to Treat and/or Prevent Friedreich Ataxia Resulting from Intracellular Mishandling of Iron” (priority 2006, published 2013).

Legend:
[1] = 52-week twice daily oral toxicity study in non-iron-loaded cynomolgus monkeys; type: in vivo
Experimental: As part of a larger study on the potential toxicity of iron chelators, we evaluated the toxicity of deferiprone in normal monkeys receiving 150 mg/kg/day (75 mg/kg twice daily) for 1 year.
To determine the toxicity of deferiprone in non-iron-loaded cynomolgus monkeys following twice daily oral (gavage) administration for 52 consecutive weeks, and to evaluate the regression of any toxic effect during a 4-week treatment-free period.
(§1) Groups of 4 male and 4 female monkeys (2 to 3 years old) were dosed by nasogastric intubation at (0.5% w/v aqueous carboxymethylcellulose vehicle) 75 mg/kg deferiprone twice daily (bid), with 6-8 hours between doses, for at least 364 days.
(§2) Clinical signs, body weights and food intake were assessed at frequent intervals. Ophthalmological and cardiovascular examinations were carried out in Weeks 17, 30, 43, 56 and 60. Hematology, coagulation, clinical chemistry and urine parameters were measured at baseline and in Weeks 8, 16, 30, 41, 56 and 60. Blood samples were taken on the first day of dosing, and in Weeks 17 and 56 for assessment of the serum deferiprone time-concentration profile. A full necropsy was performed on each animal, selected organs weighed, and histopathological examination of abnormalities and selected tissues conducted.

[2] = International Cooperative Ataxia Rating Score (ICARS), phase I-II open trial in Friedreich ataxia patients; type: in vivo, human; conditions: for ICARS oculomotor disorder (/6) / ICARS posture and gait disturbance: gait speed / ICARS posture and gait disturbance: spread feet / ICARS speech disorder (/8) / ICARS posture and gait disturbance: standing eyes open / ICARS posture and gait disturbance: walking / ICARS kinetic function (/29) / ICARS posture and gait disturbance 7 items (/34): after trial
Source text: Ten adolescents (four males, six females aged 14 to 23 yrs) with a diagnosis of Friedreich ataxia, confirmed by detection of a trinucleotide-repeat expansion in the first intron of the frataxin gene, were studied. Patients received deferiprone (Ferriprox™, Apotex Inc., Toronto, Canada) orally, in two doses for 1-5 months. Three patients were included, sequentially, for a minimum period of two months at each dose. Patient enrollment was staggered by two-weeks to enable monitoring of response. In the absence of toxicity, and with evidence of efficacy in any of the first 3 patients, a second group of 3 patients would be included at the same dose for a total duration of 6 months. If there was an absence of both efficacy and toxicity, the second group of three patients would be administered a higher dose. If toxicity developed, the current dose would be suspended and the trial resumed with the next group of patients at a lower dose. The patients were on idebenone (10 mg/kg/day, in three doses) for at least two years prior to inclusion and were kept on the drug at the same dose for the duration of the trial. MRI examinations were done at inclusion and at 1, 2, 4 and 6 months. The protocol was promoted by Assistance Publique-Hopitaux de Paris and approved by the local ethical committee and registered at the National Health Authority (AFSSAPS) and at the International Protocol Registration System (www.clinicaltrials.gov). A written informed consent was obtained from patients and parents.
(§3) The International Cooperative Ataxia Rating Score (ICARS) was used to assess the symptoms of ataxia before and after 1-5 months (Cano et al. International cooperative ataxia rating scale (ICARS): Appropriate for studies of Friedreich's ataxia? Mov Disord 2005; 20:1585-91). This scale has four subscales: posture and gait disturbance, kinetic functions, speech disorders and oculomotor disorders. Subscale scores are summed to give a total score ranging from 0 to 100. High scores indicated worse ataxia. The Perdue Pegboard test, which assesses speed of performance, delicate movements and manipulative dexterity, was included in the course of the study. This test assesses the ability of the participant to insert as many nails as possible into preset holes, linearly dug in a wooden board in a limited space of time (20 seconds with the two hands, separately and together). The tests were administered by the same investigator. Patients were monitored for neutropenia, agranulocytosis, musculoskeletal pains and zinc deficiency and had weekly blood counts, plasma iron, serum ferritin and transferrin concentration measurements, as well as assessments of renal and liver function.

intracellular iron pools = conditions: macrophages, hepatocytes and cardiomyocyte cell lines; cited from earlier work
[3] = Perdue Pegboard test in Friedreich ataxia patients; type: in vivo, human; conditions: for Perdue pegboard (number of nails inserted with the two hands alone+together): after trial
Source text: as §3

[4] = serum deferiprone time-concentration profile (HPLC) in the 52-week monkey study; type: in vivo, cynomolgus monkeys; conditions: monkeys, 75 mg/kg twice daily oral
Experimental: as §1, §2
Deferiprone was detectable (HPLC) from 0.5 h after dosing, and for up to 7 h.

[5] = patient eight, DFP 20 mg/kg, 3 mth, prior to trial 4
[6] = patient five, DFP 20 mg/kg, 5 mth, prior to trial 3
[7] = patient one, DFP 20 mg/kg, 4 mth, prior to trial 2
[8] = patient one, DFP 20 mg/kg, 4 mth, prior to trial 3
[9] = patient seven, DFP 20 mg/kg, 2 mth, prior to trial 2
[10] = patient seven, DFP 20 mg/kg, 2 mth, prior to trial 3
[11] = patient six, DFP 20 mg/kg, 2 mth, prior to trial 3
[12] = patient three, DFP 30 mg/kg, 1 mth, prior to trial 2
[13] = patient two, DFP 30 mg/kg, 1 mth, prior to trial 0

Cc1c(O)c(=O)ccn1C [deferiprone, 3-hydroxy-1,2-dimethylpyridin-4-one]
deferiprone-related effects on body weight, food intake, ophthalmology, cardiac conduction, blood pressure, heart rate, hematology or urine composition ([1]; 75 mg/kg twice daily, 52 weeks): no deferiprone-related effects
macroscopic findings at necropsy ([1]; 75 mg/kg twice daily, 52 weeks): No macroscopic findings related to deferiprone were found
microscopic findings (histopathology) ([1]; 75 mg/kg twice daily, 52 weeks): No microscopic findings in non-iron-loaded monkeys could be attributed to treatment with deferiprone
overall adverse effect ([1]; oral, 75 mg/kg twice daily for 52 weeks): without significant adverse effect
change of ICARS scores ([2]; 20 mg/kg/day, short period of the trial): mild changes of the ICARS scores
ICARS oculomotor disorder (/6) ([2]; patient eight, DFP 20 mg/kg, 3 mth, prior to trial 3): 2
ICARS posture and gait disturbance: gait speed [2, 5]: 4
ICARS posture and gait disturbance: spread feet [2, 5]: 4
ICARS speech disorder (/8) [2, 5]: 4
ICARS posture and gait disturbance: standing eyes open ([2]; patient eight, DFP 20 mg/kg, 3 mth, prior to trial 6): 6
ICARS posture and gait disturbance: walking ([2]; patient eight, DFP 20 mg/kg, 3 mth, prior to trial 7): 7
ICARS kinetic function (/29) ([2]; patient eight, DFP 20 mg/kg, 3 mth, prior to trial 21): 21
ICARS posture and gait disturbance 7 items (/34) ([2]; patient eight, DFP 20 mg/kg, 3 mth, prior to trial 33): 32
ICARS speech disorder (/8) ([2]; patient five, DFP 20 mg/kg, 5 mth, prior to trial 1): 0
ICARS oculomotor disorder (/6) ([2]; patient five, DFP 20 mg/kg, 5 mth, prior to trial 2): 2
ICARS posture and gait disturbance: gait speed [2, 6]: 3
ICARS posture and gait disturbance: spread feet [2, 6]: 2
ICARS posture and gait disturbance: standing eyes open ([2]; patient five, DFP 20 mg/kg, 5 mth, prior to trial 4): 4
ICARS posture and gait disturbance: walking ([2]; patient five, DFP 20 mg/kg, 5 mth, prior to trial 7): 7
ICARS kinetic function (/29) ([2]; patient five, DFP 20 mg/kg, 5 mth, prior to trial 8): 7
ICARS posture and gait disturbance 7 items (/34) ([2]; patient five, DFP 20 mg/kg, 5 mth, prior to trial 28): 27
ICARS posture and gait disturbance: gait speed ([2]; patient one, DFP 20 mg/kg, 4 mth, prior to trial 1): 1
ICARS oculomotor disorder (/6) [2, 7]: 2
ICARS posture and gait disturbance: standing eyes open [2, 7]: 1
ICARS speech disorder (/8) [2, 7]: 2
ICARS posture and gait disturbance: spread feet [2, 8]: 3
ICARS posture and gait disturbance: walking [2, 8]: 2
ICARS kinetic function (/29) ([2]; patient one, DFP 20 mg/kg, 4 mth, prior to trial 7): 7
ICARS posture and gait disturbance 7 items (/34) ([2]; patient one, DFP 20 mg/kg, 4 mth, prior to trial 12): 9
ICARS oculomotor disorder (/6) ([2]; patient seven, DFP 20 mg/kg, 2 mth, prior to trial 0): 0
ICARS posture and gait disturbance: gait speed ([2]; patient seven, DFP 20 mg/kg, 2 mth, prior to trial 1): 1
ICARS posture and gait disturbance: spread feet [2, 9]: 2
ICARS speech disorder (/8) [2, 9]: 2
ICARS posture and gait disturbance: standing eyes open [2, 10]: 1
ICARS posture and gait disturbance: walking [2, 10]: 3
ICARS kinetic function (/29) ([2]; patient seven, DFP 20 mg/kg, 2 mth, prior to trial 13): 12
ICARS posture and gait disturbance 7 items (/34) ([2]; patient seven, DFP 20 mg/kg, 2 mth, prior to trial 16): 13
ICARS oculomotor disorder (/6) ([2]; patient six, DFP 20 mg/kg, 2 mth, prior to trial 0): 0
ICARS posture and gait disturbance: gait speed ([2]; patient six, DFP 20 mg/kg, 2 mth, prior to trial 2): 2
ICARS posture and gait disturbance: spread feet [2, 11]: 3
ICARS speech disorder (/8) [2, 11]: 2
ICARS posture and gait disturbance: standing eyes open ([2]; patient six, DFP 20 mg/kg, 2 mth, prior to trial 5): 4
ICARS posture and gait disturbance: walking ([2]; patient six, DFP 20 mg/kg, 2 mth, prior to trial 7): 7
ICARS kinetic function (/29) ([2]; patient six, DFP 20 mg/kg, 2 mth, prior to trial 11): 11
ICARS posture and gait disturbance 7 items (/34) ([2]; patient six, DFP 20 mg/kg, 2 mth, prior to trial 17): 16
ICARS posture and gait disturbance: spread feet ([2]; patient three, DFP 30 mg/kg, 1 mth, prior to trial 1): 0
ICARS oculomotor disorder (/6) [2, 12]: 2
ICARS posture and gait disturbance: gait speed [2, 12]: 2
ICARS posture and gait disturbance: standing eyes open [2, 12]: 1
ICARS posture and gait disturbance: walking [2, 12]: 2
ICARS speech disorder (/8) [2, 12]: 2
ICARS kinetic function (/29) ([2]; patient three, DFP 30 mg/kg, 1 mth, prior to trial 8): 8
ICARS posture and gait disturbance 7 items (/34) ([2]; patient three, DFP 30 mg/kg, 1 mth, prior to trial 11): 8
ICARS oculomotor disorder (/6) [2, 13]: 0
ICARS speech disorder (/8) [2, 13]: 0
ICARS posture and gait disturbance: gait speed ([2]; patient two, DFP 30 mg/kg, 1 mth, prior to trial 1): 1
ICARS posture and gait disturbance: spread feet ([2]; patient two, DFP 30 mg/kg, 1 mth, prior to trial 2): 2
ICARS posture and gait disturbance: standing eyes open ([2]; patient two, DFP 30 mg/kg, 1 mth, prior to trial 3): 2
ICARS posture and gait disturbance: walking ([2]; patient two, DFP 30 mg/kg, 1 mth, prior to trial 7): 7
ICARS kinetic function (/29) ([2]; patient two, DFP 30 mg/kg, 1 mth, prior to trial 9): 9
ICARS posture and gait disturbance 7 items (/34) ([2]; patient two, DFP 30 mg/kg, 1 mth, prior to trial 20): 17
access to intracellular iron pools and chelation in cells (intracellular iron pools): readily enter most cells and efficiently reach the major intracellular sites of iron accumulation
speed of performances and dexterity (Perdue Pegboard) ([3]; 30 mg/kg/day group, before and 1-2 months after onset of the trial): an improvement of speed of performances and dexterity
Perdue pegboard (number of nails inserted with the two hands alone+together) ([3]; patient seven, DFP 20 mg/kg, 2 mth, prior to trial 37): 29
Perdue pegboard (number of nails inserted with the two hands alone+together) ([3]; patient six, DFP 20 mg/kg, 2 mth, prior to trial 37): 44
Perdue pegboard (number of nails inserted with the two hands alone+together) ([3]; patient two, DFP 30 mg/kg, 1 mth, prior to trial 52): 39
peak concentration relative to thalassemia patients on 25 mg/kg three times daily [4]: about three times

CC(=O)N(O)CCCCCNC(=O)CCC(=O)N(O)CCCCCNC(=O)CCC(=O)N(O)CCCCCN [desferrioxamine]
access to intracellular iron pools and chelation in cells (intracellular iron pools): slow
